Results: patent US10676429B2, “Sulfamoyl-arylamides and the use thereof as medicaments for the treatment of hepatitis B” (priority 2012, dated 2020)

Tests used:
[1] = tested on: HBV; assay: Anti-HBV activity in HepG2.117 cell line (Tet-off, intracellular HBV DNA, realtime PCR); type: cell-based; conditions: HepG2.117 cells, 3 days of treatment, intracellular HBV DNA, read-out: HepG2 117 EC50
[2] = tested on: HBV; assay: Anti-HBV activity in stable transfected HepG2.2.15 cell line (HBV DNA from secreted virions, realtime PCR); type: cell-based; conditions: HepG2.2.15 cells, 6 days of treatment, secreted virion HBV DNA, read-out: HepG2 2.15 EC50
[3] = tested on: HepG2 cells; assay: Cytotoxicity in HepG2 cells, 4 days, Resazurin assay; conditions: read-out: HepG2 4 days CC50; HepG2 cells, 4 days, Resazurin
[4] = as above; conditions: human, HepG2 cells
[5] = Hepatitis B virus, HepG2.117, 72 h
[6] = Hepatitis B virus, HepG2.2.15, 144 h

Structure (SMILES) | EC50 [1] | EC50 [2] | CC50 [3] | EC50 [1, 5] | EC50 [2, 6] | CC50 at 4 days [4]
Cc1cc(NC(=O)c2cccc(S(=O)(=O)NC3CC(=O)N(C)C3)c2)ccc1F (racemic) [Compound 179a] | 250 nM | 380 nM | > 25000 nM | – | – | –
Cc1cc(NC(=O)c2cccc(S(=O)(=O)NC3CC(=O)N(C)C3)c2)ccc1F (racemic) [Compound 179b] | 1840 nM | 1110 nM | > 25000 nM | – | – | –
Cc1cc(NC(=O)c2cccc(S(=O)(=O)NC3Cc4ccccc4C3O)c2)ccc1F (single isomer, unassigned) [Compound 141b, N-(4-fluoro-3-methyl-phenyl)-3-[[(1R,2S)-1-hydroxyindan-2-yl]sulfamoyl]benzamide or N-(4-fluoro-3-methyl-phenyl)-3-[[(1S,2R)-1-hydroxyindan-2-yl]sulfamoyl]benzamide] | 230 nM | 270 nM | > 25000 nM | – | – | –
Cc1cc(NC(=O)c2cccc(S(=O)(=O)NC3Cc4ccccc4C3O)c2)ccc1F (single isomer, unassigned) [Compound 141c, N-(4-fluoro-3-methyl-phenyl)-3-[[(1S,2S)-1-hydroxyindan-2-yl]-sulfamoyl]benzamide or N-(4-fluoro-3-methyl-phenyl)-3-[[(1R,2R)-1-hydroxyindan-2-yl]sulfamoyl]benzamide] | 290 nM | 170 nM | > 25000 nM | – | – | –
Cc1cc(NC(=O)c2cccc(S(=O)(=O)NC3Cc4ccccc4C3O)c2)ccc1F (single isomer, unassigned) [Compound 141d, N-(4-fluoro-3-methyl-phenyl)-3-[[(1R,2S)-1-hydroxyindan-2-yl]sulfamoyl]benzamide or N-(4-fluoro-3-methyl-phenyl)-3-[[(1S,2R)-1-hydroxyindan-2-yl]sulfamoyl]benzamide] | 1140 nM | 560 nM | > 25000 nM | – | – | –
Cc1cc(NC(=O)c2cccc(S(=O)(=O)NC3CCC(O)C3)c2)ccc1F (single isomer, unassigned) [Compound 145b, N-(4-fluoro-3-methyl-phenyl)-3-[[(1R,3S)-3-hydroxycyclopentyl]sulfamoyl]benzamide or N-(4-fluoro-3-methyl-phenyl)-3-[[(1S,3R)-3-hydroxycyclopentyl]sulfamoyl]benzamide] | 580 nM | 440 nM | > 25000 nM | – | – | –
O=C(Nc1ccc(F)cc1)c1cccc(S(=O)(=O)NC2CCCCC2)c1 [Compound 6] | – | – | > 25000 nM | 580 nM | – | –
Cc1cc(NC(=O)c2cccc(S(=O)(=O)N[C@H]3C[C@H](O)C3)c2)ccc1F [Compound 184a] | – | – | – | 770 nM | 310 nM | > 25000 nM
Cc1cc(NC(=O)c2cccc(S(=O)(=O)N[C@H]3C[C@@H](O)C3)c2)ccc1F [Compound 184b] | – | – | – | 330 nM | 300 nM | > 25000 nM
COC(=O)N1CC(NS(=O)(=O)c2cccc(C(=O)Nc3ccc(F)c(C)c3)c2)C1 [Compound 185] | – | – | – | 620 nM | 220 nM | > 25000 nM
Cc1cc(NC(=O)c2cccc(S(=O)(=O)NC(C)C)c2)cc(C)c1F [Compound 186] | – | – | – | 1340 nM | 200 nM | > 25000 nM
Cc1ccc(S(=O)(=O)NC2(C)COC2)c(F)c1C(=O)Nc1ccc(F)c(C#N)c1 [Compound 191] | – | – | – | 360 nM | 330 nM | > 25000 nM
Cc1ccc(S(=O)(=O)NC2(C)COC2)c(F)c1C(=O)Nc1ccc(F)c(F)c1 [Compound 194] | – | – | – | 310 nM | 380 nM | > 25000 nM
Cc1ccc(S(=O)(=O)NC2(C)COC2)c(F)c1C(=O)Nc1ccc(F)c(Cl)c1 [Compound 195] | – | – | – | 180 nM | 270 nM | > 25000 nM
O=C(Nc1ccc(F)c(F)c1)c1c(F)ccc(S(=O)(=O)N[C@H]2CCOC2)c1F [Compound 196] | – | – | – | 70 nM | 130 nM | > 25000 nM
O=C(Nc1ccc(F)c(Cl)c1)c1c(F)ccc(S(=O)(=O)N[C@H]2CCOC2)c1F [Compound 201] | – | – | – | 60 nM | 60 nM | > 25000 nM
CC1(NS(=O)(=O)c2cc(Cl)cc(C(=O)Nc3ccc(F)c(C(F)F)c3)c2F)COC1 [Compound 217] | – | – | – | 600 nM | 200 nM | > 25000 nM
CC1(NS(=O)(=O)c2cccc(C(=O)Nc3ccc(F)c(C(F)F)c3)c2F)COC1 [Compound 218] | – | – | – | 100 nM | 120 nM | > 25000 nM
O=C(Nc1ccc(F)c(C(F)F)c1)c1cccc(S(=O)(=O)N[C@H]2CCOC2)c1F [Compound 220] | – | – | – | 90 nM | 110 nM | > 25000 nM

Structure (SMILES) | EC50 [1] | EC50 [2] | CC50 [3] | EC50 [1, 5] | EC50 [2, 6] | CC50 at 4 days [4]
Cc1cc(NC(=O)c2cccc(S(=O)(=O)NC3(C)COC3)c2F)ccc1F [Compound 222] | – | – | – | 100 nM | 50 nM | > 25000 nM
Cc1cc(NC(=O)c2cccc(S(=O)(=O)NC(C)Cc3ccncc3)c2)ccc1F (centres unmarked) [Compound 224] | – | – | – | 760 nM | 160 nM | > 25000 nM
Cc1cc(NC(=O)c2cccc(S(=O)(=O)N[C@H](C)C(F)(F)F)c2)ccc1F [Compound 225] | – | – | – | 1340 nM | 90 nM | > 25000 nM
Cc1cc(NC(=O)c2cccc(S(=O)(=O)N[C@@H](C)C(F)(F)F)c2)ccc1F [Compound 226] | – | – | – | 1900 nM | 270 nM | > 25000 nM
Cc1cc(NC(=O)c2cccc(S(=O)(=O)NCC(F)F)c2)ccc1F [Compound 227] | – | – | – | 710 nM | 160 nM | > 25000 nM
Cc1cc(NC(=O)c2cccc(S(=O)(=O)NCC(F)(F)F)c2)ccc1F [Compound 228] | – | – | – | 1190 nM | 170 nM | > 25000 nM
Cc1cc(NC(=O)c2cccc(S(=O)(=O)NC3CCC(F)(F)C3)c2)ccc1F (centres unmarked) [Compound 229] | – | – | – | 490 nM | 200 nM | > 25000 nM
Cc1cc(NC(=O)c2cc(S(=O)(=O)NC(C)C)oc2C)ccc1F [Compound 230] | – | – | – | 1520 nM | 730 nM | > 25000 nM
Cc1cc(NC(=O)c2ccc(S(=O)(=O)NC3(C)COC3)o2)ccc1F [Compound 231] | – | – | – | 320 nM | 210 nM | > 25000 nM
CC1(NS(=O)(=O)c2ccc(Cl)c(C(=O)Nc3ccc(F)c(C(F)(F)F)c3)c2)COC1 [Compound 233] | – | – | – | > 1000 nM | > 1000 nM | > 25000 nM
CC1(NS(=O)(=O)c2ccc(Cl)c(C(=O)Nc3ccc(F)c(F)c3)c2)COC1 [Compound 234] | – | – | – | 340 nM | 720 nM | > 25000 nM
CC1(NS(=O)(=O)c2ccc(Cl)c(C(=O)Nc3ccc(F)c(C(F)F)c3)c2)COC1 [Compound 235] | – | – | – | 330 nM | 830 nM | > 25000 nM
Cc1cc(NC(=O)c2cc(S(=O)(=O)N[C@H]3CCOC3)ccc2F)ccc1F [Compound 236] | – | – | – | 1580 nM | 480 nM | > 25000 nM
Cc1cc(NC(=O)c2cc(S(=O)(=O)N[C@H]3CCOC3)ccc2Br)ccc1F [Compound 237] | – | – | – | 130 nM | 430 nM | > 25000 nM
Cc1ccc(S(=O)(=O)NC2(C)COC2)cc1C(=O)Nc1ccc(F)c(C(F)(F)F)c1 [Compound 238] | – | – | – | 500 nM | 610 nM | > 25000 nM
Cc1cc(NC(=O)c2ccc(F)c(S(=O)(=O)N[C@H]3CCOC3)c2)ccc1F [Compound 239] | – | – | – | 530 nM | 480 nM | > 25000 nM
Cc1cc(NC(=O)c2cc(F)cc(S(=O)(=O)NC(C)C)c2)ccc1F [Compound 240] | – | – | – | 2860 nM | 400 nM | > 25000 nM
Cc1cc(NC(=O)c2cc(F)cc(S(=O)(=O)N[C@H]3CCOC3)c2)ccc1F [Compound 241] | – | – | – | 1790 nM | 380 nM | > 25000 nM
Cc1cc(NC(=O)c2cc(S(=O)(=O)N[C@H]3CCOC3)ccc2C(F)(F)F)ccc1F [Compound 242] | – | – | – | 1800 nM | 1910 nM | > 25000 nM
